# Laboratory results taken from patent US12098148B2, “Therapeutic compounds” (C4X Discovery Limited, priority 2018, dated 2024).
# Assays:
# [1] = system: NQO1 mRNA in BEAS-2B cells; assay: Beas2B NQO1 mRNA cell based assay; design: species or system human; settings: Homo sapiens, BEAS-2B, 24 h, 24 h compound treatment, increase in NQO1 mRNA vs vehicle (0.1% DMSO), read-out: EC50
# Method in brief: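 BEAS-2B human bronchial epithelial cells exposed to compound for 24 h at 37 °C, 5% CO2. NQO1 mRNA measured by one-step TaqMan RT-qPCR on unpurified lysates, normalized to β-actin; relative expression by ΔΔCT method.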
# [2] = target: human KEAP1 (N-term, residues 321-609) (Homo sapiens, UniProt Q14145); assay: biochemical;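 also: fluorescence polarization competition assay of Kelch domain binding to NRF2, 12-point 1:3 dilution series from 10 µM, read after 1 h at room temperature, floor 10 nM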
# Chain of human KEAP1 (N-term, residues 321-609) (Q14145 321-609): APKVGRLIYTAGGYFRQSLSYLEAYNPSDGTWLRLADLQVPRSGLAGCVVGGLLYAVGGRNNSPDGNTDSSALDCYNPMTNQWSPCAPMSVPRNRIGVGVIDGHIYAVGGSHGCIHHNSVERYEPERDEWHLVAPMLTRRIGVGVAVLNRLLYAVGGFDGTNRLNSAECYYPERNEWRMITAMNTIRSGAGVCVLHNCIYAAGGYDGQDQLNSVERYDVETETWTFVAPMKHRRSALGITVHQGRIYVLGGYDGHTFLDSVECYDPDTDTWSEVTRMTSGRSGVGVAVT
# Description: Biological Assays KEAP1 Kelch Fluorescence Polarization (FP) Assay Method
# Inhibition of the Kelch domain-NRF2 interaction was determined using a fluorescence polarization-based competition assay in a black 384-well microplate. Compounds were tested at a starting concentration of 10 μM serially diluted 1:3 to generate a 12-point dose response curve on the Biomek FX robot.
# After 1 h at room temperature, fluorescence polarization (excitation 470 nm/emission 530 nm) was measured using an Envision plate reader. IC50 values were determined by fitting the data to a four parameter logistic fit using XLfit or XE Runner within ActivityBase.
Compound,IC50 [2] [nM],EC50 [1] [nM]
"C[C@@H]1CC(=O)N(C[C@@H]2c3c(OCc4nnn(C)c4C4CC4)ccc(Cl)c3CCN2C(=O)[C@@H]2CCCC[C@]2(C)C(=O)O)C1 [Example 163, (1S,2R)-2-((S)-5-chloro-8-((5-cyclopropyl-1-methyl-1H-1,2,3-triazol-4-yl)methoxy)-1-(((R)-4-methyl-2-oxopyrrolidin-1-yl)methyl)-1,2,3,4-tetrahydroisoquinoline-2-carbonyl)-1-methylcyclohexane-1-carboxylic acid]",5.3,0.78
"C[C@]1(C(=O)O)CCCC[C@H]1C(=O)N1CCc2c(Cl)ccc(OCc3noc4c(F)cccc34)c2[C@H]1CN1CCCC1=O [Example 164, (1S,2R)-2-((S)-5-chloro-8-((7-fluorobenzo[d]isoxazol-3-yl)methoxy)-1-((2-oxopyrrolidin-1-yl)methyl)-1,2,3,4-tetrahydroisoquinoline-2-carbonyl)-1-methylcyclohexane-1-carboxylic acid]",6,2.6
"C[C@]1(C(=O)O)CCCC[C@H]1C(=O)N1CCc2c(Cl)ccc(OCc3noc4c(F)c(F)ccc34)c2[C@H]1CN1CCCC1=O [Example 165, (1S,2R)-2-((S)-5-chloro-8-((6,7-difluorobenzo[d]isoxazol-3-yl)methoxy)-1-((2-oxopyrrolidin-1-yl)methyl)-1,2,3,4-tetrahydroisoquinoline-2-carbonyl)-1-methylcyclohexane-1-carboxylic acid]",8.4,11
"Cc1cc(COc2ccc(Cl)c3c2[C@@H](CN2CCCC2=O)N(C(=O)[C@@H]2CCCC[C@]2(C)C(=O)O)CC3)no1 [Example 166, (1S,2R)-2-((S)-5-chloro-8-((5-methylisoxazol-3-yl)methoxy)-1-((2-oxopyrrolidin-1-yl)methyl)-1,2,3,4-tetrahydroisoquinoline-2-carbonyl)-1-methylcyclohexane-1-carboxylic acid]",7.5,40
"Cc1noc(COc2ccc(Cl)c3c2[C@@H](CN2CCCC2=O)N(C(=O)[C@@H]2CCCC[C@]2(C)C(=O)O)CC3)n1 [Example 167, (1S,2R)-2-((S)-5-chloro-8-((3-methyl-1,2,4-oxadiazol-5-yl)methoxy)-1-((2-oxopyrrolidin-1-yl)methyl)-1,2,3,4-tetrahydroisoquinoline-2-carbonyl)-1-methylcyclohexane-1-carboxylic acid]",16,280
"Cc1nc(COc2ccc(Cl)c3c2[C@@H](CN2CCCC2=O)N(C(=O)[C@@H]2CCCC[C@]2(C)C(=O)O)CC3)no1 [Example 168, (1S,2R)-2-((S)-5-chloro-8-((5-methyl-1,2,4-oxadiazol-3-yl)methoxy)-1-((2-oxopyrrolidin-1-yl)methyl)-1,2,3,4-tetrahydroisoquinoline-2-carbonyl)-1-methylcyclohexane-1-carboxylic acid]",8.5,85
"Cn1nnc(COc2ccc(Cl)c3c2[C@@H](CN2CCCC2=O)N(C(=O)[C@H]2CCCC[C@]2(C)C(=O)O)CC3)c1C(F)(F)F [Example 169, (1S,2S)-2-((S)-5-chloro-8-((1-methyl-5-(trifluoromethyl)-1H-1,2,3-triazol-4-yl)methoxy)-1-((2-oxopyrrolidin-1-yl)methyl)-1,2,3,4-tetrahydroisoquinoline-2-carbonyl)-1-methylcyclohexane-1-carboxylic acid]",62,140
"CN(C)CCn1cc(COc2ccc(Cl)c3c2[C@@H](CN2CC4(CC4)CC2=O)N(C(=O)[C@@H]2CCCC[C@]2(C)C(=O)O)CC3)nn1 [Example 173, (1S,2R)-2-((S)-5-chloro-8-((1-(2-(dimethylamino)ethyl)-1H-1,2,3-triazol-4-yl)methoxy)-1-((6-oxo-5-azaspiro[2.4]heptan-5-yl)methyl)-1,2,3,4-tetrahydroisoquinoline-2-carbonyl)-1-methylcyclohexane-1-carboxylic acid]",6.5,35
"Cc1ccc(OCc2nnn(C)c2C(F)(F)F)c2c1CCN(C(=O)[C@@H]1CCCC[C@]1(C)C(=O)O)[C@@H]2CN1CCCC1=O [Example 174, (1S,2R)-1-Methyl-2-((S)-5-methyl-8-((1-methyl-5-(trifluoromethyl)-1H-1,2,3-triazol-4-yl)methoxy)-1-((2-oxopyrrolidin-1-yl)methyl)-1,2,3,4-tetrahydroisoquinoline-2-carbonyl)cyclohexane-1-carboxylic acid]",11,6.6

# The next lines start with results.
IC50 [2] [nM],Compound,EC50 [1] [nM]
6.6,"C[C@]1(C(=O)O)CCCC[C@H]1C(=O)N1CCc2c(Cl)ccc(OCc3nnn4c3CCCC4)c2[C@H]1CN1CC2(CC2)CC1=O [Example 170, (1S,2R)-2-((S)-5-chloro-1-((6-oxo-5-azaspiro[2.4]heptan-5-yl)methyl)-8-((4,5,6,7-tetrahydro-[1,2,3]triazolo[1,5-a]pyridin-3-yl)methoxy)-1,2,3,4-tetrahydroisoquinoline-2-carbonyl)-1-methylcyclohexane-1-carboxylic acid]",0.11
6.4,"C[C@]1(C(=O)O)CCCC[C@H]1C(=O)N1CCc2c(Cl)ccc(OCc3cncnc3C(F)(F)F)c2[C@H]1CN1CC2(CC2)CC1=O [Example 171, (1S,2R)-2-((S)-5-chloro-1-((6-oxo-5-azaspiro[2.4]heptan-5-yl)methyl)-8-((4-(trifluoromethyl)pyrimidin-5-yl)methoxy)-1,2,3,4-tetrahydroisoquinoline-2-carbonyl)-1-methylcyclohexane-1-carboxylic acid]",19
6,"C[C@]1(C(=O)O)CCCC[C@H]1C(=O)N1CCc2c(Cl)ccc(OCc3nnn(C4CC4)c3C(F)F)c2[C@H]1CN1CC2(CC2)CC1=O [Example 172, (1S,2R)-2-((S)-5-chloro-8-((1-cyclopropyl-5-(difluoromethyl)-1H-1,2,3-triazol-4-yl)methoxy)-1-((6-oxo-5-azaspiro [2.4]heptan-5-yl)methyl)-1,2,3,4-tetrahydroisoquinoline-2-carbonyl)-1-methylcyclohexane-1-carboxylic acid]",1.1
14,"Cn1cnnc1COc1ccc(Cl)c2c1[C@@H](CN1CC3(CC3)CC1=O)N(C(=O)[C@@H]1CCCC[C@]1(C)C(=O)O)CC2 [Example 175, (1S,2R)-2-((S)-5-chloro-8-((4-methyl-4H-1,2,4-triazol-3-yl)methoxy)-1-((6-oxo-5-azaspiro [2.4]heptan-5-yl)methyl)-1,2,3,4-tetrahydroisoquinoline-2-carbonyl)-1-methylcyclohexane-1-carboxylic acid]",35
6.2,"C[C@]1(C(=O)O)CCCC[C@H]1C(=O)N1CCc2c(Cl)ccc(OCc3nnc4n3CCOC4)c2[C@H]1CN1CC2(CC2)CC1=O [Example 176, (1S,2R)-2-((S)-5-chloro-8-((5,6-dihydro-8H-[1,2,4]triazolo[3,4-c][1,4]oxazin-3-yl)methoxy)-1-((6-oxo-5-azaspiro [2.4]heptan-5-yl)methyl)-1,2,3,4-tetrahydroisoquinoline-2-carbonyl)-1-methylcyclohexane-1-carboxylic acid]",2.8
